Assay results published in patent publication US8263060B2, “Fast degrading polymers” (Rutgers, The State University of New Jersey, priority 2005, dated 2012).
Values after ≈ are worked out from the molar mass of the structure shown.

Assay: Solubility in PBS degradation media
Assay type: physicochemical
Conditions: aqueous buffer

solubility: 56 mg/mL (≈ 283 mM)
Compound: COc1cc(C(=O)O)cc(OC)c1O [syringic acid]
